# What was measured:
# [1] = target: T1, PKCα (Homo sapiens, UniProt P17252); assay: CETSA and isothermal dose-response, PKCα; type: cell-based; settings: Jurkat cells, 48° C.
# T1 construct: Jurkat cell was used for bryostatin 1; endogenous in cells; host or cells: Jurkat clone E6-1
# Experimental: HEK293T cells were harvested with trypsin/EDTA solution and resuspended in a conical tube before compound treatment. […] After the compound treatment, cells were aliquoted, heated to a range of temperature for 3 min, and cooled to 25° C. for 3 min. The heated cells were harvested, washed with PBS, and resuspended with lysis buffer (PBS supplemented with protease inhibitor cocktail). The cell suspension was freeze-thawed three times with liquid nitrogen for cell lysis. Soluble fraction was separated from the cell lysate following centrifugation at 20,000 g for 20 min at 4° C. Procedures for isothermal dose-response (ITDR) analysis was identical with the above-mentioned procedures except that cells were treated with various compound concentrations and heated at a fixed temperature.
# Western blot—The soluble fraction was mixed with 5×Laemmli buffer followed by heating at 95° C. for 5 min. Proteins were separated by SDS-PAGE and transferred to PVDF membranes. […] The membranes were developed with Amersham ECL prime western blotting detection reagent [GE Healthcare], and detected by ChemiDoc [Bio-Rad]. The relative band intensities to 37° C. was calculated within each of drug-treated group and control group each for the CETSA curves. For ITDR curves, the relative band intensities to DMSO group was calculated. […]
# [2] = target: T1, PKCα; assay: Translocation of PKCα between soluble and insoluble fraction (western blot); type: cell-based; settings: lysis buffer without a mild detergent
# [3] = target: T2, NPM (Oryctolagus cuniculus, UniProt G1T0N4); assay: Nucleophosmin depletion for functional validation (in vitro translation); type: biochemical; settings: 10 μM of hordenine, 30° C. for 1 h
# T2 construct: incubated with the in vitro translation system to scavenge NPM; tissue Promega; host or cells: TNT Quick Master Mix (reticulocyte lysate, own knowledge)
# Experimental: (§1) In vitro protein translation—TNT quick coupled transcription/translation system [Promega] was used for in vitro translation. TNT Quick Master Mix and T7 luciferase control DNA were mixed according to the manufacturer's protocol, and incubated with compounds at 30° C. for 1 h. After the addition of Luciferase assay reagent [Promega], luminescence from the control luciferase product was read by Synergy HT [BioTek] to measure the effect of compounds on protein translation.
# Nucleophosmin depletion for functional validation—Protein G sepharose beads [Sigma] were washed with PBS and incubated with anti-NPM antibody at 4° C. for 2 h. Unbound antibodies were washed away. The anti-NPM bound Protein G beads were mixed with TNT Quick Master Mix and incubated at 4° C. for 2 h. The beads were removed by centrifugation, and the supernatant was incubated with T7 luciferase control DNA and 10 μM of hordenine at 30° C. for 1 h. Luminescence was read after the addition of Luciferase assay reagent.
# [4] = target: T3, nucleophosmin (NPM) (Homo sapiens, UniProt P06748); assay: CETSA and isothermal dose-response, NPM; type: cell-based; settings: HEK293T cells, compared to β-tubulin and GAPDH
# T3 construct: hordenine with HEK293T cells at 20 μM for 3 h; endogenous in cells; host or cells: HEK293T
# Experimental: (§2) Western blot—The soluble fraction was mixed with 5×Laemmli buffer followed by heating at 95° C. for 5 min. Proteins were separated by SDS-PAGE and transferred to PVDF membranes. The membranes were in tris-buffered saline with Tween-20 (TBST) including 2% BSA for 1 h at 4° C., and incubated with primary antibodies (anti-DHFR [ab133546, abcam], anti-TYMS [3766, Cell signaling], anti-PKCα [2056, Cell signaling], anti-PKCβI [ab195039, abcam], anti-PKCβII [ab32026, abcam], anti-PKCγ [402 ab131222, abcam], anti-PKCδ [9616, Cell signaling], anti-PKCε [ab124806, abcam], anti-PKCμ [2052, Cell signaling], anti-PKCθ [ab110728, abcam], anti-PKCζ [9368, Cell signaling], anti-NPM [ab52644, abcam], anti-RPSA [ab133645, abcam], anti-SET [ab176567, abcam], anti-EEF1D [ab88868, abcam], anti-GAPDH [2118, Cell signaling], and anti-β-tubulin [2146, Cell signaling])) overnight. The membrane was then washed with TBST and incubated with secondary antibodies (anti-rabbit IgG, HRP linked [7074, Cell signaling]) for 1 h at room temperature. The membranes were developed with Amersham ECL prime western blotting detection reagent [GE Healthcare], and detected by ChemiDoc [Bio-Rad]. The relative band intensities to 37° C. was calculated within each of drug-treated group and control group each for the CETSA curves. For ITDR curves, the relative band intensities to DMSO group was calculated.
# [5] = target: T4, protein SET (SET) (Homo sapiens, UniProt Q01105); assay: CETSA, SET; type: cell-based; settings: HEK293T cells
# T4 construct: hordenine with HEK293T cells at 20 μM for 3 h; endogenous in cells; host or cells: HEK293T
# Experimental: as §2
# [6] = system: translation of the luciferase reporter gene; assay: In vitro protein translation (luciferase reporter); type: biochemical; settings: 30° C. for 1 h
# Experimental: as §1
# [7] = target: T5, 40S ribosomal protein SA (RPSA) (Homo sapiens, UniProt P08865); assay: CETSA, RPSA; type: cell-based; settings: HEK293T cells
# T5 construct: hordenine with HEK293T cells at 20 μM for 3 h; endogenous in cells; host or cells: HEK293T
# Experimental: as §2
# [8] = target: T6, elongation factor 1-delta (EEF1D) (Homo sapiens, UniProt P29692); assay: CETSA, EEF1D; type: cell-based; settings: HEK293T cells
# T6 construct: hordenine with HEK293T cells at 20 μM for 3 h; endogenous in cells; host or cells: HEK293T
# T6 sequence (P29692 1-281): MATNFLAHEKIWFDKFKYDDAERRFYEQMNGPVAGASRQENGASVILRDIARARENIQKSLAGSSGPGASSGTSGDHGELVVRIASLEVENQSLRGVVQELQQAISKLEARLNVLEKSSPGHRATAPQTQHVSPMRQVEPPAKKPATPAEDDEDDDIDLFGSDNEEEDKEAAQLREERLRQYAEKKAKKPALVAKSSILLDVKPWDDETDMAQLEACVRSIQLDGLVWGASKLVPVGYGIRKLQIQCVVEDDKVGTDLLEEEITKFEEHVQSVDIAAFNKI
# Experimental: as §2
# T3 sequence (P06748 whole entry): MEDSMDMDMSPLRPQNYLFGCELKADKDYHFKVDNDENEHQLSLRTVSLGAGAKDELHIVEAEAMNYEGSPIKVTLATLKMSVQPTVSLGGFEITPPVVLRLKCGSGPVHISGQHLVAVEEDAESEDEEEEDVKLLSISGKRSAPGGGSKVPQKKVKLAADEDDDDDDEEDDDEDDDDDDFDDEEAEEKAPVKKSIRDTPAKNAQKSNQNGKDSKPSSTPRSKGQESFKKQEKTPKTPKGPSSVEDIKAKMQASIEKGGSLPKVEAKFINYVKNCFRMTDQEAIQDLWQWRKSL
# T2 sequence (G1T0N4 1-294): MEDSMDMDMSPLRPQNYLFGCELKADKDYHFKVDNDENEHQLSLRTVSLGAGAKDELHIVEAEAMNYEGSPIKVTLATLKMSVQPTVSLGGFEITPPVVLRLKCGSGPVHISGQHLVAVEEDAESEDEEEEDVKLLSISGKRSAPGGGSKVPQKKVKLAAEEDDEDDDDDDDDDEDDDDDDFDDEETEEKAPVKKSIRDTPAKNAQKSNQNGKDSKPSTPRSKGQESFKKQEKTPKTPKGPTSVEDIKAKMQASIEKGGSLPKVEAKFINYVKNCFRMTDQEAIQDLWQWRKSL
# T4 sequence (Q01105 whole entry): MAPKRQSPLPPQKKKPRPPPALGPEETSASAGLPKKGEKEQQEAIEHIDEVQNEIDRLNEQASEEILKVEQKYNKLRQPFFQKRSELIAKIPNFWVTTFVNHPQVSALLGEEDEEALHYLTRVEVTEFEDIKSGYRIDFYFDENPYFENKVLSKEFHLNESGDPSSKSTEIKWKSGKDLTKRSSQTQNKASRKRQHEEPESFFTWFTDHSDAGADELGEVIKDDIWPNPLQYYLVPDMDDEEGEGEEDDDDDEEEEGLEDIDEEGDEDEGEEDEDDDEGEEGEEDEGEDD
Compound,isothermal dose-response of PKCα [1],location of PKCα (soluble / insoluble fraction) [2],upregulating efficacy on luciferase gene translation diminished after NPM depletion [3] [%],thermal stability shift of NPM (CETSA) [4],thermal stability shift of SET (CETSA) [5],effect on translation of the luciferase reporter gene [6],thermal stability shift of RPSA (CETSA) [7],thermal stability shift of EEF1D (CETSA) [8]
CCC/C=C/C=C/C(=O)O[C@H]1/C(=C/C(=O)OC)C[C@H]2C[C@H]([C@@H](C)O)OC(=O)C[C@H](O)C[C@@H]3C[C@H](OC(C)=O)C(C)(C)[C@](O)(C[C@@H]4C/C(=C/C(=O)OC)C[C@H](/C=C/C(C)(C)[C@]1(O)O2)O4)O3 [bryostatin 1],dose-dependent thermal destabilization,moved to insoluble fraction,,,,,,
"CN(C)CCc1ccc(O)cc1 [hordenine, N,N-dimethyltyramine]",,,72.7,significant thermal stabilization,did not,increase the translation,did not,did not

# Source: US11105813B2, “Method for target protein identification using thermal stability shift-based fluorescence difference in two-dimensional gel electrophoresis” (priority 2016, dated 2021)
